Values after ≈ are worked out from the molar mass of the structure shown. Like-named read-outs stand apart in the source and are kept apart here.
Experiments:
[1] = system: Mycobacterium tuberculosis H37Rv (ATCC 27294); assay: Microplate Alamar Blue Assay (MABA) in BACTEC 12B medium (TAACF screen); type: cell-based; details: for IC50: read-out: IC50
[2] = read-out: anti-TB active compound (MIC90 less than 10 μg/mL), classification

Compound | melting point | IC50 ([1]; MABA, H37Rv) [µg/mL] | MIC90 ([1]; MABA, H37Rv, read-out: MIC90) [µg/mL] | also measured
CCOC1c2c3c(c4oc(=O)cc(CC)c4c2OCC1C)C(=O)CC(C)O3 (centres unmarked) [Example 94, 8-ethyoxyl-7,10-dimethyl-4-ethyl-7,8,10,11-tetrahydro-6H-benzo[2,3-f;2′,3′-h]-tripyranyl-2,12-dione] | 174 to 176 °C | 10 (≈ 26.9 µM) | 16.7 (≈ 44.8 µM) | 
CCCc1cc(=O)oc2c3c(cc(O)c12)OC(CCC)CC3=O (centres unmarked) [Example 5a-14, benzo[1,2-b:3,4-b′]-dipyranyl-5-hydroxyl-4,8-di-n-propyl-2,10-dione] |  | 60.2 (≈ 190 µM) | 85.8 (≈ 271 µM) | 
CCCc1cc(=O)oc2cc3c(c(O)c12)C(=O)CC(c1ccccc1)O3 (centres unmarked) [Example 5b-16, benzo[1,2-b:3,4-b′]-dipyranyl-5-hydroxyl-8-phenyl-2,6-dione] |  | 4.31 (≈ 12.3 µM) | 5.41 (≈ 15.4 µM) | MIC90 [1, 2]: < 10 µg/mL
CC1CC(=O)c2c(cc3oc(=O)cc(-c4ccccc4)c3c2O)O1 (centres unmarked) [Example 5b-21, benzo[1,2-b:5,4-b′]-dipyranyl-5-hydroxyl-8-methyl-4-phenyl-2,6-dione] |  | 14.9 (≈ 46.1 µM) | 21.3 (≈ 66.1 µM) | 
CCCCC1C=Cc2c3c(c4oc(=O)cc(CCC)c4c2O1)C(=O)CC(C)O3 (centres unmarked) | 138 to 139 °C |  |  | 
CC1CC(=O)c2c(c3c(c4c(-c5cc(F)c(Cl)nc5Cl)cc(=O)oc24)OC(C)(C)C=C3)O1 (centres unmarked) [Example 25] | 158 to 160 °C | 2.86 (≈ 6 µM) | 3.9 (≈ 8.18 µM) | MIC90 [1, 2]: < 10 µg/mL
CCCc1cc(=O)oc2c3c(c4c(c12)OCC(C)C4OCC)OC(C)CC3=O (centres unmarked) [Example 95, 8-ethyoxyl-7,10-dimethyl-4-n-propyl-7,8,10,11-tetrahydro-6H-benzo[2,3-f;2′,3‘-h’ ]-trip yranyl-2,12-dione] | 198 to 201 °C | 20.1 (≈ 52 µM) | 34.5 (≈ 89.2 µM) | 
CC1CC(=O)c2c(cc(O)c3c4c(c(=O)oc23)CCCC4)O1 (centres unmarked) [Example 5a-27, benzo[1,2-b:3,4-b′]-dipyranyl-5-hydroxyl-8-methyl-3,4-cyclohexyl-2,0-dione] |  | 94.3 (≈ 314 µM) | > 100 | 
CCc1cc(=O)oc2c3c(c4c(c12)OC(CC)C=C4)OC(C)CC3=O (centres unmarked) [Example 53, 10-methyl-4,6-diethyl-2H,6H,12H-benzo[1,2-b:3,4-b′:5,6-b″]-tripyranyl-2,12-dione] | 129 to 131 °C | 6.1 (≈ 17.9 µM) | 6.85 (≈ 20.1 µM) | MIC90 [1, 2]: < 10 µg/mL
CCc1cc(=O)oc2c3c(c4c(c12)OCC(C)=C4)OC(C)CC3=O (centres unmarked) | 121 to 123 °C |  |  | 
CCCc1cc(=O)oc2c3c(c4c(c12)OC(C)C=C4)OC(C)CC3=O (centres unmarked) [Example 80, 6,10-dimethyl-4-n-propyl-2H,6H,12H-benzo[1,2-b:3,4-b′:5,6-b″]-tripyranyl-2,12-dione] | 125 to 127 °C | 3.42 (≈ 10 µM) | 5.46 (≈ 16 µM) | MIC90 [1, 2]: < 10 µg/mL
CC1CC(=O)c2c(c3c(c4c(CCl)cc(=O)oc24)OC(C)(C)C=C3)O1 (centres unmarked) | 132 to 134 °C |  |  | 
CCc1c(F)c(=O)oc2c3c(c4c(c12)OC(CC)C=C4)OC(C)CC3=O (centres unmarked) [Example 55, 10-methyl-4,6-diethyl-3-fluoro-2H,6H,12H-benzo[1,2-b:3,4-b′:5,6-b″]-tripyranyl-2,12-dione] | 144 to 146 °C | < 0.2 | 1.07 (≈ 2.99 µM) | MIC90 [1, 2]: < 10 µg/mL
CCCc1cc(=O)oc2c3c(cc(O)c12)O[C@@H]1CCCC[C@@H]1C3=O [Example 5a-19, benzo[1,2-b:3,4-b′]-dipyranyl-5-hydroxyl-8,9-cis-cyclohexyl-2,10-dione] |  | 83.1 (≈ 253 µM) | > 100 | 
CCCc1c(F)c(=O)oc2c3c(c4c(c12)OC(CC)C=C4)OC(C)CC3=O (centres unmarked) [Example 56, 10-methyl-4-n-propyl-6-ethyl-3-fluoro-2H,6H,12H-benzo[1,2-b:3,4-b′:5,6-b″]-tripyrany 1-2,12-dione] | 147 to 149 °C | 62.3 (≈ 167 µM) | > 100 | 
CCCc1cc(=O)oc2c1c(O)cc1occc(=O)c12 [Example 5a-13, 5-hydroxyl-4-n-propyl-benzo[2,3-f]-pyranyl-2,10-dione] |  | 46.7 (≈ 172 µM) | 53.4 (≈ 196 µM) | 
CCCc1cc(=O)oc2c3c(c4c(c12)OC(C)(C)C=C4)OC(CNS(=O)(=O)c1ccc(OC)cc1)CC3=O (centres unmarked) | 108 to 109 °C |  |  | 
CCCc1c(F)c(=O)oc2c3c(cc(O)c12)OC(C)CC3=O (centres unmarked) [Example 5a-31, benzo[1,2-b:3,4-b′]-dipyranyl-5-hydroxyl-8-methyl-3-fluoro-4-n-propyl-2,10-dione] |  | 17 (≈ 55.5 µM) | 23.5 (≈ 76.6 µM) | 
Cc1c(Cc2ccccc2)c(=O)oc2c3c(c4c(c12)OC(C)(C)C=C4)OC(C)CC3=O (centres unmarked) [Example 4] |  | 7.52 (≈ 18 µM) | > 100 | 
CCCc1cc(=O)oc2c3c(c4c(c12)OC(C)(C)C=C4)OC(CN1CCCCC1)CC3=O (centres unmarked) | 154 to 155 °C |  |  | 
CCCc1cc(=O)oc2c3c(c4c(c12)OC(C)(C)C=C4)OC(CNS(=O)(=O)c1ccc(F)cc1)CC3=O (centres unmarked) | 129 to 131 °C |  |  | 
CCCc1cc(=S)oc2c3c(c4c(c12)OC(C)(C)C=C4)OC(C)CC3=O (centres unmarked) | 139 to 141 °C |  |  | 
CCCc1cc(=O)oc2c(-c3cccn3C(C)C)c(O)c3c(c12)OC(C)(C)C=C3 | 161 to 162 °C |  |  | 
CCCCC1C=Cc2c3c(c4oc(=O)c(F)c(CCC)c4c2O1)C(=O)CC(C)O3 (centres unmarked) | 119 to 121 °C |  |  | 

Compound | melting point | IC50 ([1]; MABA, H37Rv) [µg/mL] | MIC90 ([1]; MABA, H37Rv, read-out: MIC90) [µg/mL] | also measured
CC1CC(=O)c2c(cc(O)c3c(CCC(F)(F)F)cc(=O)oc23)O1 (centres unmarked) [Example 5a-71, benzo[1,2-b:3,4-b′]-dipyranyl-5-hydroxyl-8-methyl-4-((3,3′,3″-trifluoro)-n-propyl)-2,10-dione] |  | 15.4 (≈ 45.1 µM) | 29.9 (≈ 87.4 µM) | 
CCCc1cc(=O)oc2cc3c(c(O)c12)C(=O)CC(C)O3 (centres unmarked) [Example 5b-11, benzo[1,2-b:3,4-b′]-dipyranyl-5-hydroxyl-4-n-propyl-8-methyl-2,6-dione] |  | 95.3 (≈ 330 µM) | > 100 | 
CCCc1cc(=O)oc2cc3c(c(O)c12)C(=O)CC(CCC)O3 (centres unmarked) [Example 5b-14, benzo[1,2-b:3,4-b′]-dipyranyl-5-hydroxyl-4,8-di-n-propyl-2,6-dione] |  | 6.59 (≈ 20.8 µM) | > 100 | 
Cc1c(Cl)c(=O)oc2c3c(c4c(c12)OC(C)(C)C=C4)OC(C)CC3=O (centres unmarked) [Example 3] |  | 33.4 (≈ 92.5 µM) | > 100 | 
CCCc1cc(=O)oc2c(-c3cccn3Cc3ccco3)c(O)c3c(c12)OC(C)(C)C=C3 | 157 to 159 °C |  |  | 
CCCc1c(Cl)c(=O)oc2c3c(cc(O)c12)OC(C)CC3=O (centres unmarked) [Example 5a-20, benzo[1,2-b:3,4-b′]-dipyranyl-5-hydroxyl-8-methyl-3-chloro-4-n-propyl-2,10-dione] |  | 26.9 (≈ 83.5 µM) | 42 (≈ 130 µM) | 
O=c1cc(CCC(F)(F)F)c2c(O)cc(O)cc2o1 [Example 6-71, 4-(3,3′,3″-trifluoro)-n-propyl-5,7-dihydroxy-coumarin] |  | 2.53 (≈ 9.21 µM) | 4.06 (≈ 14.8 µM) | MIC90 [1, 2]: < 10 µg/mL
CCCCc1cc(=O)oc2cc(O)cc(O)c12 [Example 6-36, 4-n-butyl-5,7-dihydroxy-coumarin] |  | 11.3 (≈ 48.4 µM) | 14.4 (≈ 61.6 µM) | 
Cc1cc(=O)oc2cc3c(c(O)c12)C(=O)CC(C)O3 (centres unmarked) [Example 5b-1, benzo[1,2-b:3,4-b′]-dipyranyl-5-hydroxyl-4,8-dimethyl-2,6-dione] |  | 43.1 (≈ 165 µM) | > 100 | 
CCCc1cc(=O)oc2c3c(c4c(c12)OC(C)(C)C=C4)OC(CN1CCCC1)CC3=O (centres unmarked) | 148 to 149 °C |  |  | 
CCCc1cc(=O)oc2c3c(cc(OS(=O)(=O)c4ccc(C)cc4)c12)OC(C)CC3=O (centres unmarked) [Example 5a-101, 5-(p-tolyl)sulfonyloxy-8-methyl-4-n-propyl-2H-benzo[2,3-f]dipyranyl-2,10-dione] |  | 4.2 (≈ 9.49 µM) | 6.66 (≈ 15.1 µM) | MIC90 [1, 2]: < 10 µg/mL
CCCc1cc(=O)oc2c3c(cc(O)c12)OC(c1ccccc1)CC3=O (centres unmarked) [Example 5a-16, benzo[1,2-b:3,4-b′]-dipyranyl-5-hydroxyl-8-phenyl-2,10-dione] |  | 22.5 (≈ 64.2 µM) | 25.1 (≈ 71.7 µM) | 
Cc1c(Cl)c(=O)oc2cc3c(c(O)c12)C(=O)CC(C)O3 (centres unmarked) [Example 5b-3, benzo[1,2-b:3,4-b′]-dipyranyl-5-hydroxyl-4,8-dimethyl-3-chloro-2,6-dione] |  | 90.5 (≈ 307 µM) | > 100 | 
CCCc1c(Cl)c(=O)oc2c3c(c4c(c12)OC(CCC)C=C4)OC(C)CC3=O (centres unmarked) | 140 to 142 °C |  |  | 
CCCc1cc(=O)oc2c3c(c4c(c12)OC(C)(C)C=C4)OC(CN)CC3=O (centres unmarked) | > 220 °C (dec.) |  |  | 
CCCCc1cc(=O)oc2c3c(c4c(c12)OC(C)(C)C=C4)OC(C)CC3=O (centres unmarked) [Example 36] |  | 24.2 (≈ 65.8 µM) | 36.6 (≈ 99.3 µM) | 
CCCCCC1CC(=O)c2c(cc(O)c3c(CCC)cc(=O)oc23)O1 (centres unmarked) [Example 5a-15] |  | 66 (≈ 192 µM) | > 100 | 
CCCc1cc(=O)oc2c3c(c4c(c12)OCC(C)=C4)OC(C)CC3=O (centres unmarked) | 127 to 128 °C |  |  | 
CCCc1cc(=O)oc2c3c(c4c(c12)OC(C)(C)C=C4)OC(=O)CC3 | 132 to 135 °C |  |  | 
C/C=C/C1C=Cc2c3c(c4oc(=O)cc(CCC(F)(F)F)c4c2O1)C(=O)CC(C)O3 (centres unmarked) | 147 to 149 °C |  |  | 
CCCc1cc(=S)oc2c3c(cc(OS(=O)(=O)c4ccc(C)cc4)c12)OC(C)CC3=O (centres unmarked) [Example 5a-102, 5-(p-tolyl)sulfonyloxy-8-methyl-4-n-propyl-2-thio-2H-benzo[2,3-f]dipyranyl-2,10-dione] |  | 5.48 (≈ 12 µM) | 6.24 (≈ 13.6 µM) | MIC90 [1, 2]: < 10 µg/mL
CC1CC(=O)c2c(c3c(c4c(-c5ccccc5)cc(=O)oc24)OC(C)(C)C=C3)O1 (centres unmarked) [Example 21] |  | 16.6 (≈ 42.8 µM) | > 100 | 
NCC[C@H](O)C(=O)N[C@@H]1C[C@H](N)[C@@H](O[C@H]2O[C@H](CN)[C@@H](O)[C@H](O)[C@H]2O)[C@H](O)[C@H]1O[C@H]1O[C@H](CO)[C@@H](O)[C@H](N)[C@H]1O [Amikacin, reference compound] |  |  |  | MIC50 ([1]; control compound): 0.09 µg/mL (≈ 0.154 µM); MIC90 ([1]; control compound, read-out: Avg MIC90): 0.12 µg/mL (≈ 0.205 µM)
O=c1oc2cc(O)cc(O)c2c2c1CCC2 [Example 6-26, 3,4-cyclopentyl-5,7-dihydroxy-coumarin] |  | 9.97 (≈ 45.7 µM) | 24.4 (≈ 112 µM) | 

Reference: US20100324067A1, “TETRACYCLIC DIPYRANO-COUMARIN COMPOUNDS WITH ANTI-HIV AND ANTI-MYCOBACTERIUM TUBERCULOSIS ACTIVITIES” (priority 2007, published 2010)
